Source: the supplement of paper PMC10307832

Columns and labels:
Assay in all cases: relative viability (nuclei count vs DMSO), 5 days (fraction); higher = more cells survive
AT-7519 + Pictilisib = compound: O=C(NC1CCNCC1)c1n[nH]cc1NC(=O)c1c(Cl)cccc1Cl [AT-7519] + CS(=O)(=O)N1CCN(Cc2cc3nc(-c4cccc5[nH]ncc45)nc(N4CCOCC4)c3s2)CC1 [Pictilisib] (partner 1 µM)
Method in brief: (§1)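 Five library-drug doses in √10 steps were combined with a fixed anchor-drug dose, or a single drug was given alone, by pin tool to lung cancer cell lines in 1536-well plates the day after seeding. Nuclei were stained and counted after 5 days. Relative viability is the nuclei count in treated wells over that in vehicle wells, taken as the median of duplicate plates.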

AT-7519 + Palbociclib = compound: O=C(NC1CCNCC1)c1n[nH]cc1NC(=O)c1c(Cl)cccc1Cl [AT-7519] + CC(=O)c1c(C)c2cnc(Nc3ccc(N4CCNCC4)cn3)nc2n(C2CCCC2)c1=O [Palbociclib] (partner 0.5 µM)
Method in brief: as §1

AT-7519 + Olaparib = compound: O=C(NC1CCNCC1)c1n[nH]cc1NC(=O)c1c(Cl)cccc1Cl [AT-7519] + O=C(c1cc(Cc2n[nH]c(=O)c3ccccc23)ccc1F)N1CCN(C(=O)C2CC2)CC1 [Olaparib] (partner 8 µM)
Method in brief: as §1

[1] = compound: C1=CC2=C(C=C(C(=C2N=C1)O)N=NC3=CC4=C(C=C3)C=C(C=C4)S(=O)(=O)O)S(=O)(=O)O + CC(=O)c1c(C)c2cnc(Nc3ccc(N4CCNCC4)cn3)nc2n(C2CCCC2)c1=O [Palbociclib] (partner 0.5 µM)
Method in brief: as §1

Row | Cell Line | relative viability (AT-7519 + Pictilisib; first compound 0.01 µM) | relative viability (AT-7519 + Pictilisib; first compound 0.03162 µM) | relative viability (AT-7519 + Pictilisib; first compound 0.3162 µM) | relative viability (AT-7519 + Pictilisib; first compound 1 µM) | relative viability (AT-7519 + Palbociclib; first compound 0.01 µM) | relative viability (AT-7519 + Palbociclib; first compound 0.03162 µM) | relative viability (AT-7519 + Palbociclib; first compound 0.3162 µM) | relative viability (AT-7519 + Palbociclib; first compound 1 µM) | relative viability (AT-7519 + Olaparib; first compound 0.01 µM) | relative viability (AT-7519 + Olaparib; first compound 0.03162 µM) | relative viability (AT-7519 + Olaparib; first compound 0.3162 µM) | relative viability (AT-7519 + Olaparib; first compound 1 µM) | relative viability ([1]; first compound 0.08 µM) | relative viability ([1]; first compound 0.253 µM) | relative viability ([1]; first compound 0.8 µM) | relative viability ([1]; first compound 2.53 µM) | relative viability ([1]; first compound 8 µM)
1 | NCI-H2228 | 0.357 | 0.371 | 0.473 | 0.149 | 0.638 | 0.642 | 0.636 | 0.408 | 0.54 | 0.602 | 0.569 | 0.208 | 0.81 | 0.726 | 0.79 | 0.822 | 0.92
2 | NCI-H2347 | 0.565 | 0.665 | 0.345 | 0.286 | 0.397 | 0.44 | 0.469 | 0.374 | 0.619 | 0.506 | 0.561 | 0.41 | 0.459 | 0.447 | 0.44 | 0.482 | 0.426
3 | NCI-H2405 | 0.461 | 0.424 | 0.438 | 0.293 | 0.534 | 0.523 | 0.532 | 0.381 | 0.89 | 0.783 | 0.906 | 0.606 | 0.517 | 0.543 | 0.504 | 0.575 | 0.513
4 | NCI-H3122 | 0.625 | 0.603 | 0.645 | 0.102 | 0.212 | 0.506 | 0.221 | 0.145 | 0.664 | 0.651 | 0.627 | 0.579 | 0.215 | 0.185 | 0.176 | 0.2 | 0.216
5 | PC-3 [JPC-3] | 0.779 | 0.751 | 0.688 | 0.694 | 0.591 | 0.548 | 0.508 | 0.575 | 1.19 | 1.1 | 1.09 | 0.981 | 0.572 | 0.566 | 0.528 | 0.577 | 0.565
6 | PC-14 | 0.66 | 0.59 | 0.521 | 0.258 | 0.433 | 0.502 | 0.338 | 0.0604 | 0.234 | 0.227 | 0.231 | 0.104 | 0.653 | 0.52 | 0.548 | 0.597 | 0.474
7 | RERF-LC-KJ | 0.514 | 0.452 | 0.594 | 0.136 | 1.09 | 1.13 | 0.86 | 0.55 | 0.884 | 0.964 | 0.659 | 0.242 | 1.31 | 1.13 | 1.11 | 1.06 | 1.01
8 | SK-LU-1 | 0.591 | 0.54 | 0.5 | 0.357 | 0.38 | 0.361 | 0.361 | 0.311 | 0.462 | 0.458 | 0.489 | 0.324 | 0.456 | 0.391 | 0.344 | 0.399 | 0.428
9 | SK-MES-1 | 0.457 | 0.272 | 0.328 | 0.276 | 0.304 | 0.31 | 0.295 | 0.204 | 0.662 | 0.791 | 0.56 | 0.257 | 0.351 | 0.332 | 0.34 | 0.318 | 0.342
10 | SW 1573 | 0.576 | 0.463 | 0.386 | 0.196 | 0.38 | 0.368 | 0.212 | 0.109 | 0.463 | 0.505 | 0.2 | 0.0972 | 0.463 | 0.41 | 0.397 | 0.38 | 0.0522
